In assay [1] the target is Gamma-aminobutyric acid receptor subunit alpha-1 (Rattus norvegicus, UniProt P62813).
For assay [2], the target named is cGMP-inhibited 3',5'-cyclic phosphodiesterase 3A (Homo sapiens, UniProt Q14432). In kind it is functional.
Assay [3] has as its target Prostaglandin G/H synthase 1 (Homo sapiens, UniProt P23219). Type of assay: functional.
The target in a further assay is Mu-type opioid receptor (Homo sapiens, UniProt P35372).
Assay [4] has as its target T1, D(1A) dopamine receptor (Homo sapiens, UniProt P21728).
The next assay deals with T2, Estrogen receptor (Homo sapiens, UniProt P03372).
T2 sequence (P03372 whole entry): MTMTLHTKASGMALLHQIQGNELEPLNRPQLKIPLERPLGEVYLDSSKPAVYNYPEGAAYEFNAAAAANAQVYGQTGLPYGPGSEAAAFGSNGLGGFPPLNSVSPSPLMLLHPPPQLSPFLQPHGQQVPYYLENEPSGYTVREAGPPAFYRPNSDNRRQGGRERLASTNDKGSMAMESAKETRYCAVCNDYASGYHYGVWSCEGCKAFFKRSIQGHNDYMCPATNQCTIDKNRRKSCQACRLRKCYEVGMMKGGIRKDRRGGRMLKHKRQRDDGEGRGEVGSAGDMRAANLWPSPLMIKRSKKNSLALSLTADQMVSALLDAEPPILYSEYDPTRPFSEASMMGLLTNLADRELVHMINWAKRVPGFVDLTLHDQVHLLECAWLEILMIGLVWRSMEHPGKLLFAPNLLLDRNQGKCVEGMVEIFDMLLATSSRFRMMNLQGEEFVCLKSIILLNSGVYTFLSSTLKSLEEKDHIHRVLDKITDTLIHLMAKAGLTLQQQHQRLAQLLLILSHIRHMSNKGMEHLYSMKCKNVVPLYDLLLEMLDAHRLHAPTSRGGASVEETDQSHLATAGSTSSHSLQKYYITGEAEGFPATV

Assay [5] concerns the target T3, Amine oxidase [flavin-containing] A (Homo sapiens, UniProt P21397).
T3 sequence (P21397 whole entry): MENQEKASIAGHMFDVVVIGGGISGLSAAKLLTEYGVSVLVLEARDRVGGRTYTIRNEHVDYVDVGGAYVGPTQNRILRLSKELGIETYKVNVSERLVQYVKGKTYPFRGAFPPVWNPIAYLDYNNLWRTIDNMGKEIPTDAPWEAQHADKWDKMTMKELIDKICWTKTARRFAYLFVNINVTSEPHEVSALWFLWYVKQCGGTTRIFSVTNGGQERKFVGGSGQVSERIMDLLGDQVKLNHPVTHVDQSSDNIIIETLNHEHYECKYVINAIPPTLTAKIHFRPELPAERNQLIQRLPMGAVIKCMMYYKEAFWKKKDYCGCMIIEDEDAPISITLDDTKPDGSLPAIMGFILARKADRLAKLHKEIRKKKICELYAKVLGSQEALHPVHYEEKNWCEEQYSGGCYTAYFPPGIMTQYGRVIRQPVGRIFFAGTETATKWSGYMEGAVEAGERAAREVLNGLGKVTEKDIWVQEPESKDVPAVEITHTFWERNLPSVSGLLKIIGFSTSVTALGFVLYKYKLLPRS
In kind it is functional.

For assay [6], the target named is T4, Alpha-2A adrenergic receptor (Homo sapiens, UniProt P08913).
T4 sequence (P08913 whole entry): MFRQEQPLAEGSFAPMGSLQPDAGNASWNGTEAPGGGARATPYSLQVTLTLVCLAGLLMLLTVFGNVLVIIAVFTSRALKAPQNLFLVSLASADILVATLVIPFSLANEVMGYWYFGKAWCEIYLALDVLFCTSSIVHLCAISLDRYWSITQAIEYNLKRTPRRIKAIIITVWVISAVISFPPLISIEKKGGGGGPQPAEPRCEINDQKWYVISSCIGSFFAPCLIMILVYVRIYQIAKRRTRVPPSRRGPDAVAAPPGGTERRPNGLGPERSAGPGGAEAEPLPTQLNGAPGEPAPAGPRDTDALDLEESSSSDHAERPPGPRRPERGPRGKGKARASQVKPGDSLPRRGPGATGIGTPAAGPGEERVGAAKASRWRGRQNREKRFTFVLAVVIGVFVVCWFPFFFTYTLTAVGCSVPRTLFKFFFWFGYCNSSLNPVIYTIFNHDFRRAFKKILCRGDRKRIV

In the next assay the target is Histamine H3 receptor (Homo sapiens, UniProt Q9Y5N1).
Sequence of Histamine H3 receptor (Q9Y5N1 whole entry): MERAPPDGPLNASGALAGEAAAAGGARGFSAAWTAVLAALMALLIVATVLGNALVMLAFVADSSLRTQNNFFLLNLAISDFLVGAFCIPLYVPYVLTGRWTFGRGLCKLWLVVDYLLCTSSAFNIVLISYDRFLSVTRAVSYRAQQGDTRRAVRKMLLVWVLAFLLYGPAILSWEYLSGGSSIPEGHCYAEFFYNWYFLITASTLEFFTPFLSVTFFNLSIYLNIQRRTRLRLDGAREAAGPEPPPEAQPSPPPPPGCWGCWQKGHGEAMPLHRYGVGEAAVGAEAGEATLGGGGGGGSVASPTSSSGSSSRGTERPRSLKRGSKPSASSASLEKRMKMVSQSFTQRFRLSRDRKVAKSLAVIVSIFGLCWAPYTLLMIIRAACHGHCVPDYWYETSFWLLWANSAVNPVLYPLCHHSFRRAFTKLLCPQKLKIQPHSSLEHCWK
Assay [7] deals with T1, D(1A) dopamine receptor. In kind it is functional, cell-based.
Assay [8] concerns the target T5, Peroxisome proliferator-activated receptor alpha (Homo sapiens, UniProt Q07869).
T5 sequence (Q07869 whole entry): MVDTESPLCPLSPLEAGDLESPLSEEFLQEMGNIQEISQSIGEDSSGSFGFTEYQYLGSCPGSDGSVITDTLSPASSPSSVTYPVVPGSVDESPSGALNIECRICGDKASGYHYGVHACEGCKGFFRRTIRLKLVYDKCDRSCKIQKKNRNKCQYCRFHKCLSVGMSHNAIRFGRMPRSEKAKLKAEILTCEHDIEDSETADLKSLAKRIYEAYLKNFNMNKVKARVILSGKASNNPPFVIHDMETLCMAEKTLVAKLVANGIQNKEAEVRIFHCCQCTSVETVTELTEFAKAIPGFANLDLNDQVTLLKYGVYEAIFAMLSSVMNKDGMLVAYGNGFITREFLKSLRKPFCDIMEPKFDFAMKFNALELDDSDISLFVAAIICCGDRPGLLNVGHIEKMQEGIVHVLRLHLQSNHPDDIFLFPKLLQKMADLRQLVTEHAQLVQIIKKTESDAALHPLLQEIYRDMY
In kind it is functional.

In a further assay the target is T6, Substance-K receptor (Homo sapiens, UniProt P21452).
T6 sequence (P21452 whole entry): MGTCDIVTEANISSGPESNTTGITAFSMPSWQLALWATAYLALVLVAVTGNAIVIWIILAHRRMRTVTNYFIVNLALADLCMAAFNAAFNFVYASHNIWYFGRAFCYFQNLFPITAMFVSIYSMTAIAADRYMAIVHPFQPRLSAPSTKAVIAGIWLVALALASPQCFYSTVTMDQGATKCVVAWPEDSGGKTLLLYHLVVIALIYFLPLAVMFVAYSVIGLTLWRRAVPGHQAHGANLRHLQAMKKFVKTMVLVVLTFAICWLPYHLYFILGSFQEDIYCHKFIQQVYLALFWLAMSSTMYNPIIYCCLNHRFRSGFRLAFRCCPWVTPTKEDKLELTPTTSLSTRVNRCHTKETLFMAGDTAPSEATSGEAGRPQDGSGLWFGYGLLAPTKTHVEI

We go through ten molecules from ChEMBL document CHEMBL5291721, “A preclinical secondary pharmacology resource illuminates target-adverse drug reaction associations of marketed drugs” (Nat Commun, 2023).

For orientation: AC50 means the concentration giving half of the maximal activity seen. A low value points to greater potency.
Also: assay procedure not described here.

T1 sequence (P21728 whole entry): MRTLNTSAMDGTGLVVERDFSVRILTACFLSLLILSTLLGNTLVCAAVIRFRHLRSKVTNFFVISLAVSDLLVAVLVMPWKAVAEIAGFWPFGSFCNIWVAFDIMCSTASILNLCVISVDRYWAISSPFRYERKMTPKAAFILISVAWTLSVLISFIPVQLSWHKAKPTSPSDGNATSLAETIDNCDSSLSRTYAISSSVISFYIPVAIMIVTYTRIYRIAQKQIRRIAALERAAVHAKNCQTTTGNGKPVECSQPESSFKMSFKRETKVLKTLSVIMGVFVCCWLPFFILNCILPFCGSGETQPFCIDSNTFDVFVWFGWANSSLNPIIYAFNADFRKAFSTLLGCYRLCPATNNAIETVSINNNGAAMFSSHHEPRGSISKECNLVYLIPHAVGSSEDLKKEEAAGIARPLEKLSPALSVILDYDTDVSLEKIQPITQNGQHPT
Sequence of Mu-type opioid receptor (P35372 whole entry): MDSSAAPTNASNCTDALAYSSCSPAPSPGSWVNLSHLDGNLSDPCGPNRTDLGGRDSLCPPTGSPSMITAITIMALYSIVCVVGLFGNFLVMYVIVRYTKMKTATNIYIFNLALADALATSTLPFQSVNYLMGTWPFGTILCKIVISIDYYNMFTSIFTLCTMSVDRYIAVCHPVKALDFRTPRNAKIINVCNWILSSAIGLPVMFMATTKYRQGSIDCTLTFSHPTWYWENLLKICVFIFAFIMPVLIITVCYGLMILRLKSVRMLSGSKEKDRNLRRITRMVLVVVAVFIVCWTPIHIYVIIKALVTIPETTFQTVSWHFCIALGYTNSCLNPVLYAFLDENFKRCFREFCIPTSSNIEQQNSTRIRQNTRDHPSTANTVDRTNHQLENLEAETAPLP
Sequence of Prostaglandin G/H synthase 1 (P23219 whole entry): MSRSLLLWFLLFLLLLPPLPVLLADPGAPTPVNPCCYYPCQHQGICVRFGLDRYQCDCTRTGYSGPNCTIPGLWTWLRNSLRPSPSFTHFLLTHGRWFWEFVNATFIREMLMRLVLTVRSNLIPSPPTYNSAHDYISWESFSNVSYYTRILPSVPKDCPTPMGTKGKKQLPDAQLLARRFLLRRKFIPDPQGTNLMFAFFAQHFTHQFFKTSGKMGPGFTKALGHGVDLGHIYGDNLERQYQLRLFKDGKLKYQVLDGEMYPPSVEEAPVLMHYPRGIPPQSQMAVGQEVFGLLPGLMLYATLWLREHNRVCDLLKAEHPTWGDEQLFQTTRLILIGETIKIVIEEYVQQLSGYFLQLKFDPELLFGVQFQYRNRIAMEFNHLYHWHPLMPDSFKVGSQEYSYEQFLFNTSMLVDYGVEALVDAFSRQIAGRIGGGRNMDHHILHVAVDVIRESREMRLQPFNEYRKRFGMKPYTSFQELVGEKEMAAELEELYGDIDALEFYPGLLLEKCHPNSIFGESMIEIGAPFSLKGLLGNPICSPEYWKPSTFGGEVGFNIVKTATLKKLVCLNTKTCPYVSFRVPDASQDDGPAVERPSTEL
Sequence of cGMP-inhibited 3',5'-cyclic phosphodiesterase 3A (Q14432 whole entry): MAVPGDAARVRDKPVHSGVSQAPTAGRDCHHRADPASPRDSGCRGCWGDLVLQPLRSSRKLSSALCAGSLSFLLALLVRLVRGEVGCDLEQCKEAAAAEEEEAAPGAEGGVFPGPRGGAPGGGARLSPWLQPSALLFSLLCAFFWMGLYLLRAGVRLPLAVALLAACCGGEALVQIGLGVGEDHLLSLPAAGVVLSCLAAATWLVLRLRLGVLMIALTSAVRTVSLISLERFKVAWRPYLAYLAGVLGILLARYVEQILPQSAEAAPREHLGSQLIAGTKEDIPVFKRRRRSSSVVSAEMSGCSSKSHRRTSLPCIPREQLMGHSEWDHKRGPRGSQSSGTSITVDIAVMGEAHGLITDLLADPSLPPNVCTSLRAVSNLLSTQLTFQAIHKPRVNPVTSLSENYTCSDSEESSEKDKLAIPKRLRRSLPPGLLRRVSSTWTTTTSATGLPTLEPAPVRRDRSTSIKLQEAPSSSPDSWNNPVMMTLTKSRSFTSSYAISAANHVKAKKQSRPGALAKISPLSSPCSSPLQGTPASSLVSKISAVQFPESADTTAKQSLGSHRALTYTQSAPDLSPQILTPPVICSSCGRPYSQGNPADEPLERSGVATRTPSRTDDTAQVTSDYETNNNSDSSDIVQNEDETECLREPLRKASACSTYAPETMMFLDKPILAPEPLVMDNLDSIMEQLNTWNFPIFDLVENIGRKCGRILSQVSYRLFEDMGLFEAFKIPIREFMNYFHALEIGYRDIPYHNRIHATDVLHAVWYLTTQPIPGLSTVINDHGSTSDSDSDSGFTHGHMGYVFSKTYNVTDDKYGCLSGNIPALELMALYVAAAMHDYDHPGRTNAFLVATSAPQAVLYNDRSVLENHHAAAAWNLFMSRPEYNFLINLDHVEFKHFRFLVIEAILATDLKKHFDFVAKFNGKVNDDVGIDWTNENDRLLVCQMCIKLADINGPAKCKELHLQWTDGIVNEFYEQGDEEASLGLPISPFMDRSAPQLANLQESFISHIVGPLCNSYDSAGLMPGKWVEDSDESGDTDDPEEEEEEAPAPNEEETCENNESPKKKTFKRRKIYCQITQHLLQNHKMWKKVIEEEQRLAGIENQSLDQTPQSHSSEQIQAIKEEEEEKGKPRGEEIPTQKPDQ
Sequence of Gamma-aminobutyric acid receptor subunit alpha-1 (P62813 whole entry): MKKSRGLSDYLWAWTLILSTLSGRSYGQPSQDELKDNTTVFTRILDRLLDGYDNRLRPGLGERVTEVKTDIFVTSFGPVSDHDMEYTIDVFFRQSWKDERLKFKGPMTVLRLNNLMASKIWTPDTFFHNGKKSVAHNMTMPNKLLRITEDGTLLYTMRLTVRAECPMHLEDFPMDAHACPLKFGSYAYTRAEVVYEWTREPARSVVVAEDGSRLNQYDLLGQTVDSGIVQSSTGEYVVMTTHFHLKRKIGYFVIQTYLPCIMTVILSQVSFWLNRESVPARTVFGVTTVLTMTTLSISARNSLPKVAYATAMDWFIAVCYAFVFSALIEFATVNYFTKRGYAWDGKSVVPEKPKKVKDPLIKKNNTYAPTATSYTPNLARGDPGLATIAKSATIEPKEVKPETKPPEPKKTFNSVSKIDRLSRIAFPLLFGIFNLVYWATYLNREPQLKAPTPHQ

Regarding BIVALIRUDIN, the half-maximal activity concentration (AC50) (in assay [1]; in assay [2]; in [3]; on Mu-type opioid receptor; on D(1A) dopamine receptor [4]; on Estrogen receptor) was over 30 µM in each case. Also, the AC50 (in assay [5]; in assay [6]; on Histamine H3 receptor) was over 30 µM each time.

On to `CCN1CCC[C@H]1CNC(=O)c1cc(S(N)(=O)=O)ccc1OC` [LEVOSULPIRIDE], for which, at D(1A) dopamine receptor [7], the AC50 is over 30 µM.

With `Nc1nc2ccc(OC(F)(F)F)cc2s1` [RILUZOLE], the AC50 (in [1]; in [2]; in assay [3]; on Mu-type opioid receptor; at D(1A) dopamine receptor [4]; at Estrogen receptor) was over 30 µM throughout. Also, the AC50 (in assay [5]; in [6]; on Histamine H3 receptor) was over 30 µM each time.

In assay [8], `CC(C)c1c(C(=O)Nc2ccccc2)c(-c2ccccc2)c(-c2ccc(F)cc2)n1CC[C@@H](O)C[C@@H](O)CC(=O)O` [ATORVASTATIN] returned an AC50 of over 30 µM.

On Substance-K receptor, `CN(C)C(=O)OC1N=C(c2ccccc2)c2cc(Cl)ccc2N(C)C1=O` (stereo unspecified) [CAMAZEPAM] registered an AC50 of over 10 µM.

Take `NC(=O)C[S+]([O-])C(c1ccccc1)c1ccccc1` (stereo unspecified) [MODAFINIL]: on Substance-K receptor, the concentration at half-maximal activity (AC50) is over 10 µM.

`Cc1ccc(-c2nc3ccc(C)cn3c2CC(=O)N(C)C)cc1` [ZOLPIDEM] registered an AC50 at Substance-K receptor of over 10 µM.

`CCCCCCC(C)(C)c1cc(O)c2c(c1)OC(C)(C)C1CCC(=O)CC21` (stereo unspecified) [NABILONE] gave a concentration at half-maximal activity (AC50) at D(1A) dopamine receptor [7] of over 30 µM.

In the case of `CC(C)(Oc1ccc(C2CC2(Cl)Cl)cc1)C(=O)O` (stereo unspecified) [CIPROFIBRATE], the half-maximal activity concentration (AC50) in assay [8] was over 30 µM.

`O=C(O)CCCc1ccccc1` [PHENYLBUTANOIC ACID] registered an AC50 at Substance-K receptor of over 10 µM.
